Some test systems named below: SNB-75; HL-60; UO-31; ACHN; SK-MEL-28; SF-539; COLO 205; SF-295; NCI-H23; UACC-62; M14; NCI-H460; CAKI-1; HCT-116; HOP-62.
What all share (assay): DTP human tumour cell line panel, 48 h

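Briefly, cells in 96-well plates were exposed to five compound concentrations for 48 h, and endpoints were estimated by linear interpolation. Abbreviation: GI50, concentration required for 50% inhibition of growth.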 Calls of active or inactive are those of the source. Cut-off read from the data, not from the text of the source: active = GI50 up to about 1.1 µM and inactive = higher.

Consider `C/C=C/C=N/N(c1nnc(-c2ccccc2)c(-c2ccccc2)n1)S(=O)(=O)c1ccc(C)cc1`, for which the GI50 in the test with SNB-75 was 3.61 µM (inactive); in the test on HL-60, 2.33 µM (inactive); in the test on UO-31, 5.74 µM (inactive); in the test on ACHN, 11.8 µM (inactive); in the test with SK-MEL-28, 13.5 µM (inactive); in the test on SF-539, 11.5 µM (inactive). For the same molecule, the GI50 in the test on COLO 205 is 17.1 µM (inactive); with SF-295 it was 11 µM (inactive); with NCI-H23, 14 µM (inactive); with UACC-62, 3.33 µM (inactive); in the test with M14, 4.69 µM (inactive); in the test on NCI-H460, 11.1 µM (inactive). Further, the GI50 in the test with CAKI-1 is 16.9 µM (inactive); with HCT-116 it was 8.09 µM (inactive).
Take `COc1ccc2c(c1)CC1c3c(cc4c(c3-2)OCO4)CCN1C` (configuration not stated): the GI50 with SNB-75 was 22.6 µM (inactive); in the test on UO-31, 14 µM (inactive); in the test with ACHN it was 16.9 µM (inactive); with SK-MEL-28, 28.8 µM (inactive); in the test on SF-539 it was 31.3 µM (inactive); with COLO 205, 15.8 µM (inactive). Besides, the GI50 was 21.6 µM (inactive) in the test on SF-295; 23.8 µM (inactive) in the test with NCI-H23; 21.6 µM (inactive) with UACC-62; 30.1 µM (inactive) in the test on HOP-62; 22.8 µM (inactive) in the test with M14; 24.3 µM (inactive) in the test on NCI-H460. Besides, the GI50 is 23.9 µM (inactive) in the test with CAKI-1 and 19.5 µM (inactive) in the test with HCT-116.
For the molecule `CCOc1ccc(/N=N/c2ccc3oc(=O)c(C(=O)Nc4ccc(OC)cc4)cc3c2)cc1`, the GI50 in the test with SNB-75 is 33.7 µM (inactive); in the test on HL-60, 2.88 µM (inactive); in the test on UO-31, 5.57 µM (inactive); in the test with SK-MEL-28 it was 18.9 µM (inactive); with SF-539, 20.2 µM (inactive); in the test on COLO 205, 47.9 µM (inactive). For the same molecule, the GI50 is 31.2 µM (inactive) in the test on SF-295; 19.7 µM (inactive) with NCI-H23; 11.7 µM (inactive) with UACC-62; 21.9 µM (inactive) with HOP-62; > 10 µM (inactive) with M14; 11 µM (inactive) in the test with CAKI-1. In addition, the GI50 with HCT-116 was 11.3 µM (inactive).
`COc1nc(NC2OCC(OC(C)=O)C(OC(C)=O)C2OC(C)=O)c(/N=C\C=N\c2c(NC3OCC(OC(C)=O)C(OC(C)=O)C3OC(C)=O)nc(OC)n(C)c2=O)c(=O)n1C` (configuration not stated): the GI50 in the test on SNB-75, in the test on HL-60, in the test on UO-31, with ACHN, in the test with SK-MEL-28 and in the test with SF-539 was > 100 µM (inactive) in each case. For the same molecule, the GI50 in the test with COLO 205, with SF-295, with NCI-H23, in the test with UACC-62, in the test with HOP-62 and in the test with M14 was > 100 µM (inactive) in each case. For the same molecule, the GI50 with NCI-H460 and with HCT-116 was > 100 µM (inactive) each time.
`Oc1nc(S)nc2c1CCCN2`: the GI50 with SNB-75, in the test with HL-60, with UO-31, in the test on ACHN, in the test with SK-MEL-28 and in the test with COLO 205 was > 100 µM (inactive) in each case. Also, the GI50 in the test with SF-295, with NCI-H23, with UACC-62, in the test with HOP-62, with M14 and in the test on CAKI-1 was > 100 µM (inactive) throughout. Besides, the GI50 in the test with HCT-116 was > 100 µM (inactive).
With `COc1ccc(C=O)cc1O[Si](C)(C)C(C)(C)C`, the GI50 in the test on SNB-75 is 61.5 µM (inactive); with HL-60, > 100 µM (inactive); in the test on UO-31, > 100 µM (inactive); with ACHN, > 100 µM (inactive); with SF-539, > 100 µM (inactive); with COLO 205, > 100 µM (inactive). The GI50 with SF-295, with NCI-H23, with UACC-62, in the test with HOP-62, with M14 and in the test on NCI-H460 was > 100 µM (inactive) in each case. Further, the GI50 in the test on CAKI-1 and in the test on HCT-116 was > 100 µM (inactive) each time.
As for `CC(C)=C1CCC(CN(C)C)C1=O` (configuration not stated), the GI50 is 0.234 µM (active) in the test with SNB-75; 3.61 µM (inactive) in the test with HL-60; > 100 µM (inactive) with UO-31; 17.7 µM (inactive) in the test on ACHN; 18.2 µM (inactive) in the test on SK-MEL-28; > 100 µM (inactive) in the test on SF-539. Moreover, the GI50 was 24.1 µM (inactive) in the test on COLO 205; > 100 µM (inactive) in the test on SF-295; 35.7 µM (inactive) with NCI-H23; 18.1 µM (inactive) in the test with UACC-62; 14.4 µM (inactive) with M14; > 100 µM (inactive) in the test with NCI-H460. Also, the GI50 in the test with HCT-116 was 12.9 µM (inactive).
With `COC(=O)C1C=NNC1C(=O)OC` (configuration not stated), the GI50 with SNB-75, in the test with HL-60, with UO-31, with ACHN, in the test on SF-539 and with COLO 205 was > 100 µM (inactive) each time. Moreover, the GI50 in the test on SF-295, in the test with NCI-H23, in the test with UACC-62, in the test with HOP-62, in the test with M14 and in the test with NCI-H460 was > 100 µM (inactive) each time. The GI50 in the test on CAKI-1 and in the test with HCT-116 was > 100 µM (inactive) each time.
With `O=C(/C=C/c1ccccc1)c1ccc(Cl)cc1Cl`, the GI50 is 30.8 µM (inactive) in the test on SNB-75; 14.8 µM (inactive) in the test on HL-60; > 100 µM (inactive) with UO-31; 18.2 µM (inactive) with ACHN; 20.8 µM (inactive) in the test with SF-539; 20.5 µM (inactive) in the test on COLO 205. For the same molecule, the GI50 was 19.9 µM (inactive) in the test with SF-295; 27.5 µM (inactive) with NCI-H23; 15.9 µM (inactive) with UACC-62; 94.4 µM (inactive) with HOP-62; 23.2 µM (inactive) in the test with M14; 17.6 µM (inactive) with NCI-H460. The GI50 with CAKI-1 was 25.9 µM (inactive); in the test on HCT-116 it was 11.2 µM (inactive).
Take `C/C(=N/O)c1sc(-c2nc(C)c(/C(C)=N\O)s2)nc1C`: the GI50 with SNB-75 was 31.3 µM (inactive); in the test with HL-60, > 100 µM (inactive); in the test with UO-31, > 100 µM (inactive); with ACHN, > 100 µM (inactive); in the test on SK-MEL-28, > 100 µM (inactive); in the test on SF-539, > 100 µM (inactive). The GI50 in the test on COLO 205, with SF-295, in the test on NCI-H23, in the test on UACC-62, in the test on M14 and in the test with CAKI-1 was > 100 µM (inactive) in each case. Moreover, the GI50 in the test with HCT-116 was > 100 µM (inactive).
As to `O=S(=O)(O)c1ccc(-c2c3nc(c(-c4ccc(S(=O)(=O)O)cc4)c4ccc([nH]4)c(-c4ccc(S(=O)(=O)O)cc4)c4nc(c(-c5ccc(S(=O)(=O)O)cc5)c5ccc2[nH]5)C=C4)C=C3)cc1`, the GI50 in the test with SNB-75 was 17.3 µM (inactive); in the test on UO-31, 19.5 µM (inactive); with ACHN, 86.3 µM (inactive); in the test on SK-MEL-28, 16.5 µM (inactive); in the test on SF-539, > 100 µM (inactive); in the test with COLO 205, > 100 µM (inactive). Moreover, the GI50 with SF-295 was 42.7 µM (inactive); in the test on NCI-H23, 58.1 µM (inactive); in the test with UACC-62, > 100 µM (inactive); in the test with HOP-62, > 100 µM (inactive); in the test with M14, 90.6 µM (inactive); in the test on NCI-H460, > 100 µM (inactive). Moreover, the GI50 in the test on CAKI-1 and in the test with HCT-116 was > 100 µM (inactive) throughout.
For `CC(=O)Oc1c(Br)ccc2cc(C(Br)Br)c(C(=O)c3ccccc3)nc12`, the GI50 in the test on SNB-75 was 20.5 µM (inactive); in the test with UO-31 it was 19.2 µM (inactive); in the test on ACHN, 22.1 µM (inactive); in the test on SK-MEL-28, 15.9 µM (inactive); with SF-539 it was 18.6 µM (inactive); in the test on COLO 205, 24.4 µM (inactive). For the same molecule, the GI50 was 18.7 µM (inactive) in the test with SF-295; 20 µM (inactive) with NCI-H23; 20 µM (inactive) with UACC-62; 19.1 µM (inactive) in the test on HOP-62; 21.2 µM (inactive) in the test on M14; 19.9 µM (inactive) in the test with NCI-H460. In addition, the values for the GI50 in the test with CAKI-1 and in the test with HCT-116 were 3.78 µM (inactive) and 21.8 µM (inactive), respectively.
For the molecule `C=C(C)C1CC[C@]2(C(=O)O)CCC3(C)[C@H](CCC4[C@@]5(C)CC[C@H](OC6OC(CO)C(O)C6OC6OC(C)C(O)C(O)C6O)[C@@](C)(CO)C5CC[C@]43C)C12` (some centres not stated), the GI50 with SNB-75 was > 100 µM (inactive); with HL-60 it was > 100 µM (inactive); with UO-31, 20.1 µM (inactive); in the test on ACHN it was > 100 µM (inactive); in the test on SK-MEL-28 it was > 100 µM (inactive); in the test with SF-539 it was > 100 µM (inactive). For the same molecule, the GI50 in the test on COLO 205, with SF-295, with NCI-H23, in the test on UACC-62, in the test on HOP-62 and in the test on M14 was > 100 µM (inactive) each time. Also, the GI50 in the test on NCI-H460 and in the test with HCT-116 was > 100 µM (inactive) throughout.
Take `C1CC2=C(C1)C1=S(S2)SC2=C1CCC2`: the GI50 was > 100 µM (inactive) in the test with SNB-75; > 100 µM (inactive) with HL-60; > 100 µM (inactive) with UO-31; 45.7 µM (inactive) in the test with ACHN; > 100 µM (inactive) with SK-MEL-28; > 100 µM (inactive) with SF-539. Also, the GI50 in the test on COLO 205, with SF-295, in the test with NCI-H23, in the test with UACC-62, in the test with M14 and in the test on NCI-H460 was > 100 µM (inactive) throughout. For the same molecule, the GI50 in the test with CAKI-1 and in the test on HCT-116 was > 100 µM (inactive) throughout.

For orientation: GI50 means the concentration giving 50% growth inhibition.

Source of the values: ChEMBL document CHEMBL1201862, “PubChem BioAssay data set” (2004).
